Source: US9115092B2, “Substituted quinazoline and pyrido-pyrimidine derivatives” (Asana Biosciences, LLC, priority 2010, dated 2015)

Experiments:
PC3 cells [1] = test: XTT assay for cell viability, PC3 cells; type: cell-based, human; conditions: Homo sapiens, PC-3, cell viability
Outline: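 PC3 cells seeded at 1000 cells/well, grown 24 h, then exposed to serial dilutions of compound for 96 h. Viability read by XTT dye at 37° C, absorbance 465 nm. EC50 from sigmoidal dose-response fit.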

[2] = target: T1, PI3Kα (wild-type), P110/P85α (Homo sapiens, UniProt P42336); test: PI3 Kinase TR-FRET assay, PI3Kα (wild-type); type: biochemical
T1 construct: made in house; host or cells: SF9 insect cells
Outline: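 Sf9-expressed His-purified P110/P85α (5 ng) preincubated 60 min RT with compound and PIP2 in buffer with 40 mM MgCl2, 5 mM DTT; reaction started with ATP (PIP2 and ATP both 10 μM), 30 min RT. PIP3 detected by TR-FRET displacement, 665/615 nm ratio; IC50 from dose-response curves.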

PC3 cells [3] = test: In vivo efficacy study (tumor growth suppression), PC3 xenograft; conditions: PC3 xenograft mice, after 14 days of dosing at 40 mg/kg bid po
Protocol: PC3 cells were cultured at 37° C. in a 5% CO2 incubator using Hams F12 K medium. Five million (5×10^6) cells were implanted subcutaneously to the right flank of athymic male mice (Harlan, age: 6-7 weeks, weight: about 20 g). Tumor bearing mice were randomized when the tumor volume reached about 100 mm^3. Ten mice were used per group. Dosage regimen of compounds of formula (I) were scheduled on the basis of the PK, PK-PD and maximum tolerated dose studies. Compounds of formula (I) were formulated using HPCD in PBS, pH 7.4 and dosed orally (dose volume, 10 mL/kg). Solutions of the compounds were prepared immediately before dosing the animals. A vehicle control and a reference compound were included along with test compounds.
The tumor size was measured on alternate days using Vernier® calipers. Assuming tumors to be ellipsoid, the tumor volume was calculated using the formula: V=(D×d^2)/2 […]
Changes in tumor volume (Δ volumes) for each treated (T) and control (C) group were calculated by subtracting the mean tumor volume on the first day of treatment (starting day) from the mean tumor volume on the specified observation day. […]
Percentage tumor growth inhibition was calculated as [100−% T/C]. Percentage body weight change was calculated as [(Body weight on specified observation day−Body weight on starting day)/Body weight on starting day]×100. […]

mTOR kinase = target: T2, mTOR kinase (Homo sapiens, UniProt P42345); test: mTOR kinase TR-FRET assay; type: biochemical; conditions: read-out: mTO R
T2 construct: purchased Millipore, USA
Outline: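 Compounds preincubated 60 min with mTOR (5 ng) in HEPES pH 7.5, EGTA, MnCl2; ULight-p70 S6K Thr389 peptide (50 nM) and ATP (20 μM) then added, 60 min at room temperature. EDTA-stopped, Eu-anti-phospho antibody detection by TR-FRET (665/615 nm); IC50 from variable-slope sigmoidal fit.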

[4] = system: pS6RP(S235/236), PC3 cells; test: In-cell Western assay, pS6RP(S235/236) in PC3 cells; type: cell-based, human; conditions: Homo sapiens, PC-3, In-cell Western
Outline: (§1)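 Overnight-seeded PC3 cells were treated 2 h with serially diluted compound, then fixed and immunostained with phospho-specific primary antibodies and Eu-labelled secondary. Time-resolved Eu signal read at 615 nm (ex 340 nm), normalised by Hoechst 33258 staining (ex 355/em 460 nm); IC50 from sigmoidal dose-response fit.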

PI3 kinase isoform β = PI3 kinase isoform β (Homo sapiens, UniProt P42338); test: PI3 Kinase TR-FRET assay, isoform β; type: biochemical; conditions: read-out: inhibition of PI3 kinase isoform β, IC50
Protocol: The ability of compounds of the invention to inhibit PI3K activity was determined in a homogeneous TR-FRET assay using a PI3K assay kit (Millipore, USA; cat #33-016) according to manufacturer's instructions. PI3-Kinases (isoforms α, β, γ and δ) catalyze the phosphorylation of phosphatidylinositol, PIP2 to PIP3 in the presence of ATP and Mg^2+. The PIP3 product is detected by displacement of biotin-PIP3 from an energy transfer complex consisting of Europium labeled anti-GST monoclonal antibody, a GST-tagged PH domain, biotinylated PIP3 and Streptavidin-APC. Excitation of Europium in the complex results in an energy transfer to the APC and a fluorescence emission at 665 nm. The PIP3 product displaces biotin-PIP3 from the complex resulting in a loss of energy transfer and thus a decrease in signal.
To test for the ability of compounds to inhibit the activity of PI3Kα (wild-type), exemplary compounds of formula (I) were dissolved in DMSO and directly distributed into 384-well plates at a volume of 0.5 μL. 14.5 μL of P110/P85α/PIP2 mixture in buffer (obtained from the Millipore kit) containing MgCl2 (40 mM) and DTT (5 mM) was added to compound wells and incubated for 60 min at room temperature. P110/P85α was expressed in SF9 insect cells and purified nickel column extraction. Five ng of wild-type P110/P85α was used in the assay. The kinase reaction was started by the addition of ATP. The assay concentrations of both PIP2 and ATP were 10 μM. The reaction mixture was incubated for 30 min at room temperature and was terminated by the addition of stop mix and detection mix. Fluorescence was measured at 615 and 665 nm upon excitation at 340 nm in a Victor™ V5 fluorometer (Perkin Elmer, USA). The fluorescence emission ratio at 665 to 615 nm, proportional to the kinase activity, was plotted against the compound concentration to generate dose-response curves and IC50 values were determined using GraphPad Prism® 5 software.
The activity of PI3 kinase isoforms β, γ and δ were assayed in a similar manner to the assay protocol described above for PI3Kα, by substituting the appropriate p110/p85 isoform for the p110α/p85α. Compounds of formula (I) caused inhibition of PI3 kinase isoforms β, γ and δ as determined by these assays. For example, the compounds of examples 3, 51, 54, 111, 113, 115, and 253 each caused inhibition of PI3 kinase isoform β with IC50 values <50 nM. The compounds of examples 104, 133, 146 and 152 each caused inhibition of PI3 kinase isoform β with IC50 values <500 nM. The compounds of examples 3, 51, 54, 104, 111, 113, 115, 133, 253, and 152 each caused inhibition of PI3 kinase isoform γ with IC50 values <500 nM. […] The compounds of examples 2, 3, 51, 54, 111, 113, and 253 each caused inhibition of PI3 kinase isoform […] with IC50 values >1 μM.

[5] = system: pAKT(5473) (phosphorylated at serine 473), PC3 cells; test: In-cell Western assay, pAKT(5473) in PC3 cells; type: cell-based; conditions: Homo sapiens, PC-3, In-cell Western, read-out: pAkt-S473
Outline: as §1

T1 sequence (P42336 whole entry): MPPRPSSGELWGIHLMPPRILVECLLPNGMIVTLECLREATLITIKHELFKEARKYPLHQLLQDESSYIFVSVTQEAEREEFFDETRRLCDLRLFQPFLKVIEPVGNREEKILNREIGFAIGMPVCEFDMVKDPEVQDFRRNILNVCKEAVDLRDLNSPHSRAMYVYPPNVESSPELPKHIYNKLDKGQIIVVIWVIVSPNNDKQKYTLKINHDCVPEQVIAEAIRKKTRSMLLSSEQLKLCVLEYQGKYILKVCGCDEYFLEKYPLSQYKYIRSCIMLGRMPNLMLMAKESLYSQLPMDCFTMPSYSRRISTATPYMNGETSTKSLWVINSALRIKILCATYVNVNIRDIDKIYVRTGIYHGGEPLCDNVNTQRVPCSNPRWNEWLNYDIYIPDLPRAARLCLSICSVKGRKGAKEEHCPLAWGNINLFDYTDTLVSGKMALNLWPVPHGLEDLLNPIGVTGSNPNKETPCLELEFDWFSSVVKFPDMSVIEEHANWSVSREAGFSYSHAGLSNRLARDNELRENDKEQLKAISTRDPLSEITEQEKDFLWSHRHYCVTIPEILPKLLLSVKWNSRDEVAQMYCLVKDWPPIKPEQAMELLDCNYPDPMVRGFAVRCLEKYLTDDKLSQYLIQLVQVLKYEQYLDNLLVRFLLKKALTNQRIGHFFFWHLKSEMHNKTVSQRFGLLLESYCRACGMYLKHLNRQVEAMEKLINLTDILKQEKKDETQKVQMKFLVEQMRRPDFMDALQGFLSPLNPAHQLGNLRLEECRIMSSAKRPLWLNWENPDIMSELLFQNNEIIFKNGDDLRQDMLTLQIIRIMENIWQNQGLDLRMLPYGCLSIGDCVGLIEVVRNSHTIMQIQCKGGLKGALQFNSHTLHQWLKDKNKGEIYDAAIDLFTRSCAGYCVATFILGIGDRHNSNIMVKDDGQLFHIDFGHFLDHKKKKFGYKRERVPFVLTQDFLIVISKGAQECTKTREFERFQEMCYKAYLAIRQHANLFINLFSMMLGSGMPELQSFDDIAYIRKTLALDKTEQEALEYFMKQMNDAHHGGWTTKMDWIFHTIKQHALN
T1 sequence (P27986 whole entry partner): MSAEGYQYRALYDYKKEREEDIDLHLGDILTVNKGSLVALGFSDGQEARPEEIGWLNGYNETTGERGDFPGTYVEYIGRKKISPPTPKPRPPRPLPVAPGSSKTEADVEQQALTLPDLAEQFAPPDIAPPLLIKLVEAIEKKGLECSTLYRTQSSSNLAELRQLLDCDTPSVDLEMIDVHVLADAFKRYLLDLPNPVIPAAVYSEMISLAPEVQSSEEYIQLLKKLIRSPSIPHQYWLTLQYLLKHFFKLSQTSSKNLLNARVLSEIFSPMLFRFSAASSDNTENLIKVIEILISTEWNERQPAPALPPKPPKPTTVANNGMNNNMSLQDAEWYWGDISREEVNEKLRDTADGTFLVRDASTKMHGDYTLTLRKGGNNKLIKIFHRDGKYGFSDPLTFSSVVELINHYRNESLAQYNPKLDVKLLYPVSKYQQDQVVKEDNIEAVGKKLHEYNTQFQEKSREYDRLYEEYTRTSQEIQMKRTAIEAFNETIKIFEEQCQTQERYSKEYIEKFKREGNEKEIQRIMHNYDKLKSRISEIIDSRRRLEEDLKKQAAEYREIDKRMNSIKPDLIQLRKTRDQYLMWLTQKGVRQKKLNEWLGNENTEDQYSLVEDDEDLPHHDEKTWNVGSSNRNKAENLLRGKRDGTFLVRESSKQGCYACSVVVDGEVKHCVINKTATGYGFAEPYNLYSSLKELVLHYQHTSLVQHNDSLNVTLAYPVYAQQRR
Sequence of PI3 kinase isoform β (P42338 whole entry, the tested form may be a part, canonical isoform): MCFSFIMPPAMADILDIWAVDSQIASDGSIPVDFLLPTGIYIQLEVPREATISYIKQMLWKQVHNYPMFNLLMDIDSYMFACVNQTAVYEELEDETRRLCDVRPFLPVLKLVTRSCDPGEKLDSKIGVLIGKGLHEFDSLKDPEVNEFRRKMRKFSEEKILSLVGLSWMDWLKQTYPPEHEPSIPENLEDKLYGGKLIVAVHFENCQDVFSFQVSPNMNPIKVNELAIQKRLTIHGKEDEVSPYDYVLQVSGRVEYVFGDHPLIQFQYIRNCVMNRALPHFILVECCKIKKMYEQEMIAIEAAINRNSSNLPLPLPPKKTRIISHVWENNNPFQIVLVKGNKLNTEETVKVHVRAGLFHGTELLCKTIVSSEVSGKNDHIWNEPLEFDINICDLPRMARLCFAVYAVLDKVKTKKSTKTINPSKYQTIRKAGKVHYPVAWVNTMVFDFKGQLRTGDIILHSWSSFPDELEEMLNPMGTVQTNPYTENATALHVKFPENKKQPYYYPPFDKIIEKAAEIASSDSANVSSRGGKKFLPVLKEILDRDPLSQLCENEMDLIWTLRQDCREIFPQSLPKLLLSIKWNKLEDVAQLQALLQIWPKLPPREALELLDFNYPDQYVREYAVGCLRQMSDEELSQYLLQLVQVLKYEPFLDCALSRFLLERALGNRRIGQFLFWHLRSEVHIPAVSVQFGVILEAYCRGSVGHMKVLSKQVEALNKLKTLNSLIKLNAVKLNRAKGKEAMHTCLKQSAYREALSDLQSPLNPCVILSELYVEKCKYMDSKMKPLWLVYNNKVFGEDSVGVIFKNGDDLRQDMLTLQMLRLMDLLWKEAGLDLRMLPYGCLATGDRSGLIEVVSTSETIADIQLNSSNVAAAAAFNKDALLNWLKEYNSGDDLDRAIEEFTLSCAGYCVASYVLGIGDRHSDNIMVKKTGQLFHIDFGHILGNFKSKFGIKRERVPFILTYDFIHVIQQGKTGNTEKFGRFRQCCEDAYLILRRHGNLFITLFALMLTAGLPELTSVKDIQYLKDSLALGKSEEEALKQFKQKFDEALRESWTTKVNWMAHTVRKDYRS
Sequence of PI3 kinase isoform β (P27986 whole entry partner, the tested form may be a part, canonical isoform): as the sequence (P27986 whole entry partner) above

For `CN(C)C(=O)c1ccc(NC(=O)Nc2ccc(-c3nc(N4CCOCC4)c4ncc(-c5cnn(C)c5)cc4n3)cc2F)cc1` [Example 82, 4-(3-(2-fluoro-4-(7-(1-methyl-1H-pyrazol-4-yl)-4-morpholino-pyrido[3,2-d]pyrimidin-2-yl)phenyl)ureido)-N,N-dimethyl-benzamide], the IC50 (PC3 cells [1]) was 0.201 to 10 µM, the IC50 [2] was < 50 nM and the “tumor growth inhibition relative to vehicle control group” value (PC3 cells [3]) was “about 60%”. For the same compound, the IC50 (mTOR kinase) was < 50 nM and the IC50 [4] was 0.201 to 10 µM.

`CN(C)C(=O)c1ccc(NC(=O)Nc2ccc(-c3nc(N4CCOCC4)c4ncc(-c5cccc(S(C)(=O)=O)c5)cc4n3)cc2F)cc1` [Example 104, 4-(3-(2-fluoro-4-(7-(3-(methylsulfonyl)phenyl)-4-morpholino-pyrido[3,2-d]pyrimidin-2-yl)phenyl)ureido)-N,N-dimethyl-benzamide] was tested, and the IC50 (PC3 cells [1]) was 0.201 to 10 µM, the IC50 [2] was < 50 nM and the IC50 (PI3 kinase isoform β) was < 500 nM. The IC50 [5] was < 100 nM, the IC50 (mTOR kinase) was < 50 nM and the IC50 [4] was 0.201 to 10 µM.

`CN(C)C(=O)c1ccc(NC(=O)Nc2ccc(-c3nc(N4CCOCC4)c4ccc(-c5ccc(CO)o5)cc4n3)cc2)cc1` [Example 183, 4-(3-(4-(7-(5-(hydroxymethyl)furan-2-yl)-4-morpholino-quinazolin-2-yl)phenyl)ureido)-N,N-dimethyl-benzamide] was tested, and the IC50 (PC3 cells [1]) was 0.201 to 10 µM, the IC50 [2] was < 50 nM and the “tumor growth inhibition relative to vehicle control group” value (PC3 cells [3]) was “about 60%”. For the same compound, the IC50 (mTOR kinase) was < 50 nM and the IC50 [4] was 0.201 to 10 µM.
